The text below walks through data of DBAASP.

In brackets after ≈: the same amount, converted by molar mass.

Among the test systems are Candida albicans; Staphylococcus aureus; Escherichia coli UB1005.
Experiment in all cases: ≥ marks a high value that may be exact or a test limit, other limits are often not marked, values filed in µg/mL are converted to µM
Test [1] has as its system Staphylococcus aureus ATCC 25923.
The subject of test [2] is Candida albicans ATCC 90028.
The test system of test [3] is Escherichia coli ATCC 25922.
In test [4] the test system is Acinetobacter baumannii ATCC 19606.
Test [5] concerns Pseudomonas aeruginosa ATCC 27853.
Test [6] has as its system Staphylococcus aureus ATCC 29213.
The subject of test [7] is Staphylococcus epidermidis ATCC 12228.
The subject of test [8] is Enterococcus faecalis ATCC 29212.
Test [9] has as its system Pseudomonas aeruginosa PAO1.
The subject of test [10] is Salmonella enterica subsp. enterica serovar Typhimurium ATCC 14028.

With `CC[C@H](C)[C@@H]1NC(=O)[C@H](Cc2ccccc2)NC(=O)[C@@H](NC(=O)[C@H](Cc2ccccc2)NC(=O)[C@@H](NC(=O)[C@H](CCCCN)NC(=O)[C@@H]2CCCN2C(=O)[C@H](CC(C)C)NC(=O)[C@@H](NC(=O)[C@H](CCCCN)NC(=O)[C@H](C)NC(=O)[C@H](C)NC(=O)[C@@H](NC(=O)[C@H](CO)NC(=O)[C@H](C)NC(=O)[C@@H](NC(=O)[C@@H](NC(=O)[C@@H]2CCCN2C(=O)[C@H](CC(C)C)NC(=O)[C@@H](N)Cc2ccccc2)C(C)C)[C@@H](C)CC)C(C)C)C(C)C)C(C)C)CSSC[C@@H](C(=O)O)NC(=O)[C@H](CCCCN)NC(=O)[C@H](CCCCN)NC(=O)[C@H]([C@@H](C)O)NC1=O` [FLPVIASVAAKVLPKVFCFITKKC], the values for the MIC in [1], in test [2] and in test [3] were 1.5 µM (≈ 3.93 µg/mL), 3 µM (≈ 7.86 µg/mL) and 50 µM (≈ 131 µg/mL), respectively.

Turning to `CSCC[C@H](NC(=O)[C@H](CCCCN)NC(=O)[C@H](CC(C)C)NC(=O)[C@@H](N)Cc1ccccc1)C(=O)N[C@@H](CC(C)C)C(=O)N[C@@H](CCCCN)C(=O)N[C@@H](CCCCN)C(=O)N[C@@H](CC(C)C)C(=O)N[C@@H](CC(C)C)C(N)=O` [FLKMLKKLL], the MIC (as a rule, the lowest concentration that inhibits growth of the organism) in [4] came out at 14.1 µM (≈ 16 µg/mL); in test [1], 14.1 µM (≈ 16 µg/mL); in test [5], 7.06 µM (≈ 7.99 µg/mL); in test [3] it was 28.2 µM (≈ 32 µg/mL).

For the molecule `CC[C@H](C)[C@H](NC(=O)[C@H](CCCCN)NC(=O)[C@H](CC(=O)O)NC(=O)[C@H](CC(C)C)NC(=O)[C@@H](NC(=O)[C@H](CC(N)=O)NC(=O)[C@@H](NC(=O)[C@H](Cc1ccccc1)NC(=O)[C@H](CC(C)C)NC(=O)[C@H](CCCCN)NC(=O)[C@H](CCCCN)NC(=O)CN)C(C)C)C(C)C)C(=O)N[C@@H](CCCN=C(N)N)C(=O)N[C@H]1CSSC[C@@H](C(=O)O)NC(=O)CNC(=O)CNC(=O)[C@H](C)NC(=O)[C@H](C(C)C)NC(=O)[C@H](CCCCN)NC1=O` [GKKLFVNVLDKIRCKVAGGC], the MIC in test [2] was not below 100 µM.

Turning to `CC[C@H](C)[C@H](NC(=O)[C@H](CCCCN)NC(=O)[C@H](CO)NC(=O)[C@H](CC(C)C)NC(=O)[C@H](CC(C)C)NC(=O)CNC(=O)[C@H](C)NC(=O)[C@@H](NC(=O)[C@H](C)NC(=O)CNC(=O)[C@@H](NC(=O)[C@@H](N)Cc1ccccc1)[C@@H](C)CC)C(C)C)C(=O)N[C@@H](Cc1ccccc1)C(N)=O` [FIGAVAGLLSKIF], the results for the MIC in test [4] and in test [6] were more than 29.9 µM and 37.4 µM (≈ 50 µg/mL), respectively.

As to `CC[C@H](C)[C@H](NC(=O)[C@H](CCCN=C(N)N)NC(=O)[C@@H](N)CCCCN)C(=O)N[C@@H](C)C(=O)N[C@@H](CCC(N)=O)C(=O)N[C@@H](CCCN=C(N)N)C(=O)N[C@H](C(=O)N[C@@H](CCCCN)C(=O)N[C@@H](C)C(=O)N[C@@H](Cc1ccccc1)C(=O)N[C@@H](CC(C)C)C(=O)N[C@@H](CCCN=C(N)N)C(=O)O)[C@@H](C)CC` [KRIAQRIKAFLR], the MIC in [2] was determined as 10 µM (≈ 15 µg/mL); in test [5], 5 µM (≈ 7.5 µg/mL); in test [3], 2.5 µM (≈ 3.75 µg/mL); in test [6] it was 20 µM (≈ 30 µg/mL).

For `CC(C)C[C@H](NC(=O)[C@H](C)NC(=O)[C@H](CCCCN)NC(=O)[C@H](C)NC(=O)[C@H](CC(C)C)NC(=O)[C@H](C)NC(=O)[C@H](CCCCN)NC(=O)[C@H](C)NC(=O)[C@H](C)NC(=O)[C@H](C)NC(=O)[C@H](CCCCN)NC(=O)[C@H](C)NC(=O)[C@@H](NC(=O)[C@H](C)NC(=O)[C@H](CCCCN)NC(=O)[C@H](C)NC(=O)[C@H](CC(C)C)NC(=O)[C@@H](N)Cc1ccccc1)C(C)C)C(=O)O` [FLAKAVAKAAAKALAKAL], the minimal inhibitory concentration (MIC) with Candida albicans was found to be 82 µM (≈ 144 µg/mL).

Regarding `CC[C@H](C)[C@H](NC(=O)CN)C(=O)N[C@@H](CCCCN)C(=O)N[C@@H](CCCCN)C(=O)N[C@@H](Cc1c[nH]c2ccccc12)C(=O)N[C@@H](CC(C)C)C(=O)N[C@@H](Cc1cnc[nH]1)C(=O)N[C@@H](CO)C(=O)N1CCC[C@H]1C(=O)N[C@@H](CCCCN)C(=O)N[C@@H](CCCCN)C(=O)N[C@@H](Cc1ccccc1)C(=O)N1CCC[C@H]1C(=O)N[C@@H](CCCCN)C(=O)N[C@@H](CCCCN)C(=O)N[C@@H](Cc1ccccc1)C(=O)N[C@H](C(=O)N[C@@H](CCCCN)C(=O)N[C@@H](CCCCN)C(=O)N[C@H](C(=O)N[C@@H](CCSC)C(=O)N[C@@H](CC(N)=O)C(=O)N[C@@H](CO)C(N)=O)[C@@H](C)CC)C(C)C` [GIKKWLHSPKKFPKKFVKKIMNS], the MIC in test [7] was found to be 2.5 µM (≈ 6.92 µg/mL); in [3] it was 10 µM (≈ 27.7 µg/mL).

Take `CC[C@H](C)[C@H](NC(=O)[C@H](CCCCN)NC(=O)CNC(=O)[C@@H](NC(=O)[C@@H](NC(=O)[C@H](CO)NC(=O)CNC(=O)[C@H](C)NC(=O)[C@H](CCCCN)NC(=O)[C@H](CO)NC(=O)[C@H](C)NC(=O)[C@H](CCSC)NC(=O)CN)[C@@H](C)CC)C(C)C)C(=O)N[C@@H](C)C(=O)N[C@@H](CCCCN)C(=O)N[C@H](C(=O)N[C@@H](C)C(=O)N[C@@H](CC(C)C)C(=O)NCC(=O)N[C@@H](C)C(=O)N[C@@H](CC(C)C)C(N)=O)[C@@H](C)CC` [GMASKAGSIVGKIAKIALGAL]: the MIC was 50 µM (≈ 97.8 µg/mL) in test [1], 25 µM (≈ 48.9 µg/mL) in [2] and 25 µM (≈ 48.9 µg/mL) in test [3].

As to `CC(C)C[C@H](NC(=O)[C@H](CC(C)C)NC(=O)[C@H](CCCCN)NC(=O)[C@@H](N)Cc1c[nH]c2ccccc12)C(=O)N[C@@H](CO)C(=O)N[C@@H](CCCCN)C(=O)N[C@@H](C)C(=O)N[C@@H](CCC(N)=O)C(=O)N[C@@H](CCC(=O)O)C(=O)N[C@@H](CCCCN)C(=O)N[C@@H](Cc1ccccc1)C(=O)NCC(=O)N[C@@H](CCCCN)C(=O)N[C@@H](CC(N)=O)C(=O)N[C@@H](CCCCN)C(=O)N[C@@H](CO)C(=O)N[C@@H](CCCN=C(N)N)C(=O)N[C@@H](CS)C(N)=O` [WKLLSKAQEKFGKNKSRC], the MIC in test [7] was found to be 7.69 µM (≈ 16.5 µg/mL); in test [1], 62 µM (≈ 133 µg/mL); in test [5] it was 62 µM (≈ 133 µg/mL); in [3] it was 62 µM (≈ 133 µg/mL).

On to `CC[C@H](C)[C@H](NC(=O)[C@H](Cc1ccccc1)NC(=O)[C@@H]1CCCN1C(=O)[C@@H](NC(=O)[C@@H](N)CC(C)C)C(C)C)C(=O)NCC(=O)N[C@@H](CCCN=C(N)N)C(=O)N[C@H](C(=O)N[C@@H](CC(C)C)C(=O)NCC(=O)NCC(=O)N[C@@H](CC(C)C)C(=O)N[C@@H](CC(C)C)C(=O)N[C@@H](C)C(=O)N[C@@H](CCCN=C(N)N)C(=O)N[C@@H](Cc1ccccc1)C(N)=O)[C@@H](C)O` [LVPFIGRTLGGLLARF], for which the minimum inhibitory concentration (MIC) in test [4] was more than 64 µM; in the test with Staphylococcus aureus, 64 µM (≈ 111 µg/mL); in test [8], more than 64 µM; in test [3], more than 64 µM; in test [6], 16 µM (≈ 27.7 µg/mL).

Take `CC(C)C[C@H](NC(=O)[C@H](Cc1ccc(O)cc1)NC(=O)[C@@H]1CCCN1C(=O)[C@@H]1CCCN1C(=O)[C@H](CCCCN)NC(=O)[C@@H]1CCCN1C(=O)[C@@H](N)C(C)C)C(=O)N1CCC[C@H]1C(=O)N[C@@H](CCCN=C(N)N)C(=O)N1CCC[C@H]1C(=O)N[C@@H](CCCN=C(N)N)C(=O)N1CCC[C@H]1C(=O)N1CCC[C@H]1C(=O)N[C@@H](CCCN=C(N)N)C(=O)N[C@@H](CCCN=C(N)N)C(=O)N[C@@H](CCCCN)C(=O)N[C@@H](Cc1ccc(O)cc1)C(=O)N[C@@H](CC(N)=O)C(=O)N[C@@H](Cc1cnc[nH]1)C(N)=O` [VPKPPYLPRPRPPRRKYNH]: the figures for the MIC (against Escherichia coli UB1005; in test [1]; in test [9]) were 2.11 µM (≈ 5 µg/mL), 3.38 µM (≈ 8 µg/mL) and 27 µM (≈ 64 µg/mL), respectively.

Turning to `CC(C)C[C@H](NC(=O)[C@H](CC(C)C)NC(=O)[C@H](CCCCN)NC(=O)[C@H](CCCCN)NC(=O)[C@H](CC(C)C)NC(=O)CNC(=O)[C@H](CCCCN)NC(=O)[C@H](CC(C)C)NC(=O)[C@@H](N)Cc1ccccc1)C(N)=O` [FLKGLKKLL], the MIC in [4] is more than 121 µM; in test [1] it was 121 µM (≈ 128 µg/mL); in test [5], 7.55 µM (≈ 7.99 µg/mL); in test [3] it was 121 µM (≈ 128 µg/mL).

Take `CC[C@H](C)[C@H](NC(=O)[C@H](CCCN=C(N)N)NC(=O)[C@@H](N)CCCCN)C(=O)N[C@H](C(=O)N[C@@H](CCC(N)=O)C(=O)N[C@@H](CCCN=C(N)N)C(=O)N[C@@H](CCCCN)C(=O)N[C@@H](CCCCN)C(=O)N[C@@H](CC(=O)O)C(=O)N[C@@H](CCCCN)C(=O)N[C@@H](CCCCN)C(=O)N[C@@H](CCCN=C(N)N)C(=O)O)C(C)C` [KRIVQRKKDKKR]: the MIC was not below 40 µM in [2], 40 µM (≈ 63.3 µg/mL) in test [5], 20 µM (≈ 31.7 µg/mL) in test [3] and 40 µM (≈ 63.3 µg/mL) in test [6].

In the case of `CC[C@H](C)[C@H](NC(=O)[C@H](CCCCN)NC(=O)CNC(=O)CNC(=O)[C@H](CC(C)C)NC(=O)[C@H](CC(N)=O)NC(=O)[C@H](C)NC(=O)[C@H](C)NC(=O)[C@@H](N)CCC(=O)O)C(=O)N[C@@H](CC(C)C)C(=O)N[C@@H](CCC(=O)O)C(=O)N[C@@H](CCC(=O)O)C(=O)N[C@@H](CCCCN)C(=O)N[C@@H](CCCCN)C(=O)N[C@@H](CC(C)C)C(=O)N[C@@H](CO)C(=O)N[C@@H](CCCN=C(N)N)C(=O)N[C@@H](CC(C)C)C(=O)N1CCC[C@H]1C(=O)N1CCC[C@H]1C(=O)N[C@@H](CO)C(=O)N[C@@H](Cc1cnc[nH]1)C(=O)N[C@@H](CC(C)C)C(=O)O` [EAANLGGKILEEKKLSRLPPSHL], the MIC in test [8], in test [10] and in test [3] was more than 200 µM in each case.
